Patent publication US8354419B2, “Benzimidazole analogues for the treatment or prevention of flavivirus infections” (Vertex Pharmaceuticals Incorporated, priority 2009, dated 2013)

system: HCV (Ib) RNA replication; assay: Cell-based luciferase reporter HCV (1b) RNA replication assay (replicon cell lines Huh-7 5.2 and ET); set-up: species or system Hepatitis C virus; conditions: Hepatitis C virus, Huh-7, 96 h, HCV 1b genotype replicon, luciferase readout, 4 days incubation; read-out: EC50_1b
Method in brief: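 Huh-7-derived 5.2 or ET replicon cells carrying a firefly luciferase reporter were seeded at ~3000 cells/well in medium without G418 or phenol red. Compound was added after 3-4 h, followed by 4 days at 37 °C. Luciferase readout was used, with IC50 fitted by nonlinear regression from eleven concentrations in duplicate.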

Row | SMILES | EC50 [nM]
1 | CC(C)(C)OC(=O)N1CCC[C@H]1c1nc2cc(C#CC#Cc3ccc4[nH]c([C@@H]5CCCN5C(=O)OC(C)(C)C)nc4c3)ccc2[nH]1 [Compound 69] | 5 to 5000
2 | COC(=O)N[C@H](C(=O)N1CC[C@H]1c1nc2ccc(-c3ccc(-c4ccc5nc([C@@H]6CCN6C(=O)[C@@H](NC(=O)OC)C(C)C)[nH]c5c4)cc3)cc2[nH]1)C(C)C [Compound 145] | ≤ 5
3 | COC(=O)N[C@H](C(=O)N1CCC[C@H]1c1nc2cc(-c3ccc(-c4ccc5nc([C@@H]6CCCN6C(=O)[C@@H](NC(=O)OC)C(C)C)[nH]c5c4)cc3F)ccc2[nH]1)C(C)C [Compound 9, ((S)-1-{(S)-2-[5-(2-Fluoro-4-{2-[(S)-1-((S)-2-methoxycarbonylamino-3-methyl-butyryl)-pyrrolidin-2-yl]-1H-benzoimidazol-5-yl}-phenyl)-1H-benzoimidazol-2-yl]-pyrrolidine-1-carbonyl}-2-methyl-propyl)-carbamic acid methyl ester] | ≤ 5
4 | COC(=O)N(C)[C@H](C(=O)N1CCC[C@H]1c1nc2cc(-c3ccc(-c4ccc5nc([C@@H]6CCCN6C(=O)[C@H](C(C)C)N(C)C(=O)OC)[nH]c5c4)cc3)ccc2[nH]1)C(C)C [Compound 4, [(S)-1-((S)-2-{5-[4-(2-{(S)-1-[(S)-2-(Methoxycarbonyl-methyl-amino)-3-methyl-butyryl]-pyrrolidin-2-yl}-1H-benzoimidazol-5-yl)-phenyl]-1H-benzoimidazol-2-yl}-pyrrolidine-1-carbonyl)-2-methyl-propyl]-methyl-carbamic acid methyl ester] | ≤ 5
5 | COC(=O)N[C@H](C(=O)N1CCC[C@H]1c1nc2cc(-c3ccc(-c4ccc5nc([C@@H]6CCCN6C(=O)[C@@H](NC(=O)OC)C(C)C)[nH]c5c4)c(OC)c3OC)ccc2[nH]1)C(C)C [Compound 166] | ≤ 5
6 | Cn1c([C@@H]2CCCN2C(=O)OC(C)(C)C)nc2cc(-c3ccc(-c4ccc5[nH]c([C@@H]6CCCN6C(=O)OC(C)(C)C)nc5c4)cc3)ccc21 [Compound 226] | 5 to 5000
7 | COC(=O)N[C@H](C(=O)N1CCC[C@H]1c1nc2cc(-c3ccc(-c4ccc5nc([C@@H]6CCCN6C(=O)[C@@H](NC(=O)OC)C(C)C)[nH]c5c4)cc3CO)ccc2[nH]1)C(C)C [Compound 161] | ≤ 5
8 | COC(=O)N[C@H](C(=O)N1CCC[C@H]1c1nc2ccc(-c3coc(-c4ccc5nc([C@@H]6CCCN6C(=O)[C@@H](NC(=O)OC)C(C)C)[nH]c5c4)n3)cc2[nH]1)C(C)C [Compound 236] | ≤ 5
9 | COC(=O)N[C@H](C(=O)N1C[C@H](F)C[C@H]1c1nc2cc(-c3ccc(-c4ccc5nc([C@@H]6C[C@@H](F)CN6C(=O)[C@@H](NC(=O)OC)C(C)C)[nH]c5c4)cc3)ccc2[nH]1)C(C)C [Compound 165] | ≤ 5
10 | COC(=O)N[C@H](C(=O)N1CCC[C@H]1c1nc2cc(-c3ccc(-c4ccc5nc([C@@H]6CCCN6C(=O)[C@@H](NC(=O)OC)C(C)C)[nH]c5c4)cc3C(F)(F)F)ccc2[nH]1)C(C)C [Compound 177] | ≤ 5
11 | COC(=O)N[C@H](C(=O)N1CCC[C@H]1c1nc2cc(C#Cc3ccc4[nH]c([C@@H]5CCCN5C(=O)OC(C)(C)C)nc4c3)ccc2[nH]1)C(C)C [Compound 34, (S)-2-(5-{2-[(S)-1-((S)-2-Methoxycarbonylamino-3-methyl-butyryl)-pyrrolidin-2-yl]-1H-benzoimidazol-5-ylethynyl}-1H-benzoimidazol-2-yl)-pyrrolidine-1-carboxylic acid tert-butyl ester] | 5 to 5000
12 | COC(=O)N(C)[C@H](C(=O)N1C[C@@H](C)C[C@H]1c1nc2ccc(C#CC#Cc3ccc4nc([C@@H]5C[C@H](C)CN5C(=O)[C@H](C(C)C)N(C)C(=O)OC)[nH]c4c3)cc2[nH]1)C(C)C [Compound 274] | ≤ 5
13 | CC(C)[C@H](NC(=O)NC1CCCC1)C(=O)N1CCCC1c1nc2cc(C#Cc3ccc4[nH]c([C@H]5CCCN5C(=O)[C@@H](NC(=O)NC5CCCC5)C(C)C)nc4c3)ccc2[nH]1 (stereo partly drawn) [Compound 70] | 5 to 5000
14 | COC(=O)N[C@H](C(=O)N1C[C@@H](C)C[C@H]1c1nc2ccc(-c3ccc(-c4ccc(-c5ccc6nc([C@@H]7C[C@H](C)CN7C(=O)[C@@H](NC(=O)OC)C(C)C)[nH]c6c5)cc4)cc3)cc2[nH]1)C(C)C [Compound 263] | ≤ 5
15 | O=C(OCc1ccccc1)N1CCCC[C@H]1c1nc2cc(C#C/C=C/c3ccc4[nH]c([C@@H]5CCCCN5C(=O)OCc5ccccc5)nc4c3)ccc2[nH]1 [Compound 40, (S)-2-(5-{(E)-4-[2-((S)-1-Benzyloxycarbonyl-piperidin-2-yl)-1H-benzoimidazol-5-yl]-but-1-en-3-ynyl}-1H-benzoimidazol-2-yl)-piperidine-1-carboxylic acid benzyl ester] | 5 to 5000
16 | O=C(OCc1ccccc1)N1CCC[C@H]1c1nc2cc(C#Cc3ccc4[nH]c([C@@H]5CCCN5C(=O)OCc5ccccc5)nc4c3)ccc2[nH]1 [Compound 31, (S)-2-{5-[2-((S)-1-Benzyloxycarbonyl-pyrrolidin-2-yl)-1H-benzoimidazol-5-ylethynyl]-1H-benzoimidazol-2-yl}-pyrrolidine-1-carboxylic acid benzyl ester] | 5 to 5000
17 | COC(=O)NC(C(=O)N1CCCC1c1nc2cc(-c3ccc(-c4ccc5[nH]c([C@@H]6CCCN6C(=O)C(NC(=O)OC)C(C)(C)F)nc5c4)cc3)ccc2[nH]1)C(C)(C)F (stereo partly drawn) [Compound 179] | ≤ 5

Row | SMILES | EC50 [nM]
18 | COC(=O)N[C@H](C(=O)N1CCC[C@H]1c1nc2cc(-c3c[nH]c(-c4ccc5nc([C@@H]6CCCN6C(=O)[C@@H](NC(=O)OC)C(C)C)[nH]c5c4)n3)ccc2[nH]1)C(C)C [Compound 202] | 5 to 5000
19 | CC(C)(C)CCN1CCC[C@H]1c1nc2cc(C#Cc3ccc4[nH]c([C@@H]5CCCN5CCC(C)(C)C)nc4c3)ccc2[nH]1 [Compound 134] | 5 to 5000
20 | COC(=O)N[C@H](C(=O)N1CCC[C@H]1c1nc2cc(-c3cnc(-c4ccc5[nH]c([C@@H]6CCCN6C(=O)[C@@H](NC(=O)OC)C(C)C)nc5c4)s3)ccc2[nH]1)C(C)C [Compound 176] | 5 to 5000
21 | C[C@H]1C[C@@H](c2nc3ccc(-c4ccc(-c5ccc6nc([C@@H]7C[C@H](C)CN7C(=O)OC(C)(C)C)n(C)c6c5)cc4)cc3n2C)N(C(=O)OC(C)(C)C)C1 [Compound 291] | 5 to 5000
22 | COC(=O)N[C@H](C(=O)N1CCC[C@H]1c1nc2cc(-c3ccc(-c4ccc5nc([C@@H]6CCCN6C(=O)[C@@H](NC(=O)OC)C(C)C)[nH]c5c4)cc3C#N)ccc2[nH]1)C(C)C [Compound 5, ((S)-1-{(S)-2-[5-(2-Cyano-4-{2-[(S)-1-((S)-2-methoxycarbonylamino-3-methyl-butyryl)-pyrrolidin-2-yl]-1H-benzoimidazol-5-yl}-phenyl)-1H-benzoimidazol-2-yl]-pyrrolidine-1-carbonyl}-2-methyl-propyl)-carbamic acid methyl ester] | ≤ 5
23 | COC(=O)N[C@H](C(=O)N1C[C@@H](C)C[C@H]1c1nc2cc(C#CC#Cc3ccc4[nH]c([C@@H]5C[C@H](C)CN5C(=O)[C@@H](NC(=O)OC)C(C)C)nc4c3)ccc2[nH]1)C(C)C [Compound 251] | ≤ 5
24 | COC(=O)N[C@H](C(=O)N1CCC[C@H]1c1nc2cc(-c3c(C)cc(-c4ccc5nc([C@@H]6CCCN6C(=O)[C@@H](NC(=O)OC)C(C)C)[nH]c5c4)cc3C)ccc2[nH]1)C(C)C [Compound 149] | ≤ 5
25 | O=C([C@H]1C[C@@H](O)CN1)N1CCC[C@H]1c1nc2cc(C#Cc3ccc4[nH]c([C@@H]5CCCN5C(=O)[C@H]5C[C@@H](O)CN5)nc4c3)ccc2[nH]1 [Compound 99] | 5 to 5000
26 | O=C(CC1CCCCC1)N1CCC[C@H]1c1nc2cc(C#Cc3ccc4[nH]c([C@@H]5CCCN5C(=O)CC5CCCCC5)nc4c3)ccc2[nH]1 [Compound 103] | 5 to 5000
27 | COC(=O)N[C@H](C(=O)N1CCC[C@H]1c1nc2cc(-c3ccc(-c4ccc5[nH]c([C@@H]6CCCN6C(=O)[C@@H](NC(=O)OC)C(C)C)nc5c4)c(C)c3C)ccc2[nH]1)C(C)C [Compound 13, ((S)-1-{(S)-2-[5-(4-{2-[(S)-1-((S)-2-Methoxycarbonylamino-3-methyl-butyryl)-pyrrolidin-2-yl]-1H-benzoimidazol-5-yl}-2,3-dimethyl-phenyl)-1H-benzoimidazol-2-yl]-pyrrolidine-1-carbonyl}-2-methyl-propyl)-carbamic acid methyl ester] | ≤ 5
28 | COC(=O)N[C@H](C(=O)N1C[C@@H](C)C[C@H]1c1nc2cc(-c3cc(C)c(-c4ccc5[nH]c([C@@H]6C[C@H](C)CN6C(=O)[C@@H](NC(=O)OC)C(C)C)nc5c4)cc3C)ccc2[nH]1)C(C)C [Compound 252] | ≤ 5
29 | COC(=O)N(C)[C@H](C(=O)N1CCC[C@H]1c1nc2cc(-c3ccc(-c4ccc5nc([C@@H]6CCCN6C(=O)[C@H](C(C)C)N(C)C(=O)OC)[nH]c5c4)c4c3OCO4)ccc2[nH]1)C(C)C [Compound 182] | ≤ 5
30 | CC(C)CCN1CCC[C@H]1c1nc2cc(C#Cc3ccc4[nH]c([C@@H]5CCCN5CCC(C)C)nc4c3)ccc2[nH]1 [Compound 135] | 5 to 5000
31 | COC(=O)N[C@H](C(=O)N1CCC[C@H]1c1nc2cc(-c3cc4sc(-c5ccc6nc([C@@H]7CCCN7C(=O)[C@@H](NC(=O)OC)C(C)C)[nH]c6c5)cc4s3)ccc2[nH]1)C(C)C [Compound 167] | ≤ 5
32 | COC(=O)N[C@H](C(=O)N1CCC[C@H]1c1nc2cc(-c3ccc(-c4ccc5[nH]c([C@@H]6CCCN6C(=O)[C@@H](NC(=O)OC)[C@@H](C)OC)nc5c4)cc3)ccc2[nH]1)C(C)C [Compound 208] | ≤ 5
33 | CC(C)[C@H](NC(=O)O[C@H]1CCOC1)C(=O)N1CCC[C@H]1c1nc2cc(-c3ccsc3-c3ccc4[nH]c([C@@H]5CCCN5C(=O)[C@@H](NC(=O)O[C@H]5CCOC5)C(C)C)nc4c3)ccc2[nH]1 [Compound 47, bis((S)-tetrahydrofuran-3-yl)-(2S,2′S)-1,1′-((2S,2′S)-2,2′-(5,5′-(thiophene-2,3-diyl)bis(1H-benzo[d]imidazole-5,2-diyl))bis(pyrrolidine-2,1-diyl))bis(3-methyl-1-oxobutane-2,1-diyl)dicarbamate] | 5 to 5000
